Measured values reported in patent US20090247634A1, “Methods for identifying modulators of eoxin formation” (priority 2006, published 2009).
Several values for one entry are separate records, joined by “and”; a condition that tells them apart may be missing. Equal entries are not always repeated. Values belong to the molecule of their own block, whether it stands above or below them.

What was measured:
eosinophils [1] = assay: Biosynthesis of 14,15-LTC4 and LTC4 in eosinophils (RP-HPLC); assay type: cell-based, human; conditions: arachidonic acid (10 μM), 5 min, 37° C.; one line per donor 1-11
Description: (§1) Human eosinophils contain abundant amounts of both 15-lipoxygenase and 5-lipoxygenase. […] The cells were incubated for five minutes at 37° C. and the amounts of 14,15-LTC4 and LTC4 were analyzed with RP-HPLC. […] Therefore, measurement of these metabolites is considered to reflect the total formation of 15-lipoxygenase derived cysteinyl-containing 14,15-leukotrienes and 5-lipoxygenase derived cysteinyl-containing leukotriens, respectively.
Isolated eosinophils (1-20×10^6/sample) were resuspended in phosphate buffered saline (1 ml/sample) and pre-incubated for 2 minutes in 37° C. (in presence or absence of indomethacin, 1 μM) prior to stimulation with ionophore A23187 (1 μM)/arachidonic acid (1 or 10 μM)/A23187 plus arachidonic acid/PGD2 (1 μM)/LTC4 (1 μM)/IL-5 (10 ng/ml)/14,15-LTC4 (10 μM) or 14,15-LTD4 (10 μM) for indicated time periods at 37° C. The incubations were terminated by addition of one volume of methanol (for analysis by RP-HPLC). For subsequent analysis by enzyme immunoassay (EIA), reactions were terminated by rapid cool off, 0° C., before centrifugation at 1200×g, 5 min. Supernatants were transferred to cryo tubes and stored in −70° C. until analyzed.
In order to get rid of cellular debris and proteins, centrifugation at 1200×g for 5 min. was performed. Supernatants were evaporated under reduced pressure and the residues resolved in methanol and transferred to a test tube. Samples were thereafter evaporated to dryness under a stream of nitrogen, and finally resuspended in 200 μl mobile phase (acetonitril:methanol:H20:acetic acid, 29:19:72:0.8, pH adjusted to 5.6 with NH3 for analysis of leukotrienes and 14,15-leukotrienes, and methanol:water:trifluoroacetic acid 70:30:0.007 for analysis of monohydroxy acids). The extracted samples were subjected to analysis in a reverse phase HPLC system as described. Briefly, samples were applied to a octadecyl reverse phase column (Chromabond ^18C, Macherey-Nagel, Duren, Germany) and elution rate was 1.2 ml/minute.

[2] = tested on: cord blood derived mast cells; assay: Biosynthesis of 14,15-LTC4 in IL-4 primed cord blood derived mast cells (EIA); assay type: cell-based, human; conditions: arachidonic acid (10 μM), 5 min, n=3
Description: Mast cells play a key role in the pathophysiology of asthma. Recently, we reported that interleukin-4 (IL-4) induced the expression of 15-LO-1 in human cord blood derived mast cells in vitro and that mast cells express 15-LO-1 in vivo (4). Therefore, it was of interest to investigate if mast cells could produce 14,15-leukotrienes. IL-4 primed mast cells were incubated with arachidonic acid (10 μM) for 5 min. Supernatants were collected and analyzed using an EIA against 14,15-LTC4. Under these conditions, human mast cells released 0.8+/−0.6 pmol/10^6 cells, (n=3), indicating the capacity to synthesise and release immunoreactive 14,15-LTC4 after arachidonic acid stimulation.
Prior to incubation, CBMC cells were primed for four days with IL-4 (10 ng/ml). After mechanical removal and washing in PBS, cells were resuspended in PBS and pre-incubated with or without indomethacin (1 μM) for 2 minutes in 37° C. The CBMC cells were subsequently incubated in 37° C. with arachidonic acid for indicated time periods. Incubations were terminated either by addition of one volume of methanol (LC-MS analysis) or by rapid cool off, 0° C., and subsequently analyzed by EIA.

[3] = Non-enzymatic metabolism during incubation at 37° C.; assay type: physicochemical; conditions: 60 min incubation at 37° C.
Description: In order to analyze if eosinophils can metabolize 14,15-LTC4 to 14,15-LTD4 and 14,15-LTE4, eosinophils were incubated with synthetic 14,15-LTC4 or 14 (R)-cysteinyl-glycyl-15(S)-hydroxy-5,8,10,12(Z,Z,E,E)-eicosatetraenoic acid (14,15-LTD4) for 60 min at 37° C. The metabolites formed were analyzed with product ion scan at 497.2 m/z for 14,15-LTD4 and 440.2 m/z for 14,15-LTE4. The retention time and mass spectrum of a product formed (Metabolite 2) from 14,15-LTC4 were identical to synthetic 14,15-LTD4 (FIG. 30B), and a product formed (Metabolite 3) after incubation with 14,15-LTD4 had identical retention time and mass spectrum as synthetic 14 (R)-cysteinyl-15(S)-hydroxy-5,8,10,12(Z,Z,E,E)-eicosatetraenoic (14,15-LTE4) (FIG. 30C). […] (data not shown). Basically, the product ion mass spectra of 14,15-leukotrienes and corresponding 5-lipoxygenase derived cysteinyl-leukotrienes are almost identical. However, 14,15-leukotrienes form a fragment at 205 m/z, whereas the corresponding fragment in 5-lipoxygenase derived cysteinyl-leukotrienes is at 189 m/z (FIG. 31). These collision induced dissociation products are probably formed by a cleavage next to the carbon where the cysteinyl group is positioned, which is at carbon 14 for 14,15-leukotrienes and carbon 6 for leukotrienes.

[4] = tested on: confluent bovine endothelium cells; assay: Endothelial cell barrier function (TEER), Example 6a; assay type: cell-based
Description: Bovine aorta endothelial cells (BAEC) and human umbilical vein endothelial cells (HUVEC) were isolated and cultured with calf serum or human serum. BAEC or HUVEC in the first to fifth passages were detached by brief (2 min) trypsin-EDTA treatment (0.25% trypsin/0.01% EDTA) and replated onto 3.0 μm pore size polycarbonate filters (Tissue Culture inserts, 10 mm; NUNC, Roskilde, Denmark) or, for the purpose of visual inspection, 0.2 μm pore size Anopore inorganic membrane (transparent when wet). In order to promote cellular differentiation and enhance attachment of EC, the filters were pretreated with 50 μl Biomatrix 1 (167 μg/ml) and air-dried. EC were seeded at a density of 2×10^5 cells per filter and incubated in culture medium at 37° C. in a humidified atmosphere of 5% CO2 in air. The EC were grown to confluent monolayers, as assessed by daily microscopic observation, in transparent 0.2 μm pore size filters and measurement of the electrical resistance across the monolayer. Under these experimental conditions maximal resistance is obtained at day 7 postseeding, at which day the EC monolayers were then used in the experiments.
Rapid changes in endothelial cell (EC) barrier function in response to various arachidonic acid metabolites were analysed through continuous registration of transendothelial electrical resistance (TEER) with electrodes on each side of EC monolayer^18. For measurement of TEER, the filter insert with ECs was transferred to a resistance measurement chamber (Endohm-12, World Precision Instruments, Sarasota, Fla., USA) modified so as to assure exact positioning of the electrodes in relation to each other and to the filter insert daring repeated measurements. The chamber (low compartment) and the filter insert (upper compartment) were filled with 2 ml and 400 μl culture medium, respectively. All measurements were made at 37° C. with the equipment placed in a cell culture incubator. Direct readings of the electrical resistance were given by an ohmmeter (Evom, World Precision Instruments, Sarasota, Fla., US) connected to the electrodes of the resistance chamber. The electrical resistance of individual EC monolayers was obtained by subtracting the resistance of the corresponding naked filter coated with Biomatrix as measured prior to seeding of the EC. Thus, TEER values represent the resistance of the EC monolayer solely and depend on the development of tight junctions between adjoining endothelial cells.

eosinophils [5] = assay: Metabolism in eosinophils after 5 min of incubation; conditions: 5 min of incubation, 37° C.
Description: as §1

[6] = tested on: guinea pig pulmonary parenchymal strip or ileum; conditions: cited from earlier work
neutrophils = assay: Oxidative metabolism of neutrophils, lucigenin-enhanced chemiluminescence; assay type: cell-based, human
Description: Neutrophil and eosinophil granulocytes were purified from peripheral whole blood using a Percoll gradient and the magnetic cell separation system (MACS).
Granulocytes were primed for 30 minutes at 37° C. with either IL-5 (10.5 ng/mL) or GM-CSF (10.5 ng/mL) and subsequently stimulated with IL-5 (100 ng/mL), GM-CSF (100 ng/mL), LTB4 (10^−7M) or Eoxin (10^−8-10^−6M). Oxidative metabolism was measured by a lucigenin-enhanced chemiluminescence (CL) assay.

[7] = tested on: human endothelial cell (EC) monolayers; assay type: cell-based; conditions: no granulocytes present
Description: To explore the ability of 14,15-LTC4 and its metabolites 14,15-LTD4 and 14,15-LTE4 to induce alterations in vascular permeability, an established in vitro permeability assay based on assessment of changes in electrical resistance across human endothelial cell (EC) monolayers was used. Maximum stimulus-induced change in EC resistance in this model reaches down to approximately −70%.
Human umbilical vein endothelial cells (HUVEC) were isolated and cultured as previously described (24). The cells were seeded onto 3 μm pore size polycarbonate filters (Tissue Culture inserts, 10 mm; NUNC, Roskilde, Denmark) at a density of 2×10^5 cells and grown to confluent monolayers. The capacity of arachdonic acid metabolites to induce changes in barrier function of endothelial cell (EC) monolayers was analyzed through continuous registration of transendothelial electrical resistance (TEER) (24). For measurement of TEER, the filter insert with ECs was transferred to a resistance measurement chamber (Endohm-12, World Precision Instruments, Sarasota, Fla., USA) modified so as to assure exact positioning of the electrodes in relation to each other and to the filter insert during repeated measurements. […] The electrical resistance of individual EC monolayers was obtained by subtracting the resistance of the corresponding naked filter coated with Biomatrix as measured prior to seeding of the EC. […]

SMILES: CCCCC/C=C\C/C=C\C/C=C\C/C=C\CCCC(=O)O [Arachidonic acid]
14,15-LTC4 (eosinophils [1]): 58 pmol/10^7 and 74 pmol/10^7 and 34 pmol/10^7 and 12 pmol/10^7 and 26 pmol/10^7 and 46 pmol/10^7 and 16 pmol/10^7 and 22 pmol/10^7 and 48 pmol/10^7 and 40 pmol/10^7 and 32 pmol/10^7 | LTC4 (eosinophils [1]): 34 pmol/10^7 and 12 pmol/10^7 and 20 pmol/10^7 and 0 pmol/10^7 (4×) and 6 pmol/10^7 and 10 pmol/10^7 and 38 pmol/10^7 and 22 pmol/10^7 | 14,15-LTC4 released by mast cells [2]: 0.8+/−0.6 pmol/10^6 cells

non-enzymatic metabolism [3]: no non-enzymatic metabolism | metabolism in eosinophils (eosinophils [5]): almost no metabolism
SMILES: CCCCC[C@H](O)[C@@H](/C=C/C=C/C=C\C/C=C\CCCC(=O)O)SC[C@H](NC(=O)CC[C@H](N)C(=O)O)C(=O)NCC(=O)O [EoxC4, 14 (R)-glutathionyl-15 (S)-hydroxy-5,8,10,12 (Z,Z,E,E)-eicosatetraenoic acid]
plasma leakage / change in TEER ([4]; 10^−7 and 10^−8 M): induce significant plasma leakage | potency relative to the most potent 5-lipoxygenase derived leukotrienes ([4]; FIG. 22): about five to ten times less potent | bronchoconstriction ([6]; Drazen et al. 1981): did not induce bronchoconstriction | contractile effects ([6]; guinea pig pulmonary parenchymal strip or ileum): appear not to have contractile effects | radical production by GM-CSF primed neutrophils (neutrophils; GM-CSF (10.5 ng/mL) primed, Eoxin 10^−8-10^−6M): induced the radical production by GM-CSF primed neutrophils in a dose-dependent manner | responders (neutrophils; GM-CSF primed neutrophils): 7-8 subjects of 13

SMILES: CCCCC/C=C\C[C@@H](O)/C=C/C=C/C=C\[C@@H](O)CCCC(=O)O [LTB4, leukotriene B4]
effect on EC barrier function [7]: no effect | oxygen free radical production by non-primed neutrophils (neutrophils; non-primed blood neutrophils, GM-CSF 100 ng/mL, LTB4 10^−7M, Eoxin 10^−8-10^−6M): induced the oxygen free radical production
